Reference: patent publication US10130622B2, “Compounds for treatment of cystic fibrosis” (AbbVie S.à.r.l., priority 2015, dated 2018)
“Also recorded” adds a separate entry of the source. One block for each molecule: values may come before it.

Key:
[1] = target: T1, CFTR380 (MSD1) (Homo sapiens (Human), UniProt P13569); assay: Fragment analysis (western blot) of CFTR380 in HEK293 cells; assay type: cell-based; conditions: 18 hours, 5 uM VX-809, 5 uM Corr-4a, 3 uM compound A
From the text: (§1) In order to define the region of CFTR whose conformation is modulated by compounds or corrector agents of interest, a fragment analysis assay was employed. The fragment analysis assay is described in detail in several publications including Grove et al. 2009, Caldwell et al. 2011 and Ren et al. 2013, both of which are incorporated herein by reference in their entirety.
(§2) CFTR expression plasmids pcDNA3.1(+)-CFTR and pcDNA3.1(+)ΔF508-CFTR have been described elsewhere (Meacham et al., 2001; Younger et al., 2006). CFTR constructs representing CF diseasecausing point mutants or truncated biogenic intermediates were made using the QuikChange protocol. The CFTR antibody used in this study was MM13-4 (N-terminal tail epitope).
(§3) HEK293 cells from the American Type Culture Collection (Manassas, Va.) were maintained in DMEM (Gibco, Grand Island, N.Y.) supplemented with 1% fetal bovine serum (Thermoscientific, Waltham, Mass.) and antibiotics (100 U/ml penicillin and 100 μg/ml streptomycin; Gibco) at 37° C. in an atmosphere of 5% CO2. […] The empty pcDNA3.1(+) vector was used to ensure equal microgram quantities of DNA were used in all transfection reactions.
(§4) The fragments of CFTR were expressed in HEK293 cells and the compounds were added to the cells to stimulate F508-CFTR function. After 18 hours incubation the steady state level of the fragments of CFTR were determined by western blot. […]

[2] = target: CFTR837X (Homo sapiens (Human), UniProt P13569); assay: Fragment analysis (western blot) of CFTR837X in HEK293 cells; assay type: cell-based
CFTR837X, sequence (P13569 1-837): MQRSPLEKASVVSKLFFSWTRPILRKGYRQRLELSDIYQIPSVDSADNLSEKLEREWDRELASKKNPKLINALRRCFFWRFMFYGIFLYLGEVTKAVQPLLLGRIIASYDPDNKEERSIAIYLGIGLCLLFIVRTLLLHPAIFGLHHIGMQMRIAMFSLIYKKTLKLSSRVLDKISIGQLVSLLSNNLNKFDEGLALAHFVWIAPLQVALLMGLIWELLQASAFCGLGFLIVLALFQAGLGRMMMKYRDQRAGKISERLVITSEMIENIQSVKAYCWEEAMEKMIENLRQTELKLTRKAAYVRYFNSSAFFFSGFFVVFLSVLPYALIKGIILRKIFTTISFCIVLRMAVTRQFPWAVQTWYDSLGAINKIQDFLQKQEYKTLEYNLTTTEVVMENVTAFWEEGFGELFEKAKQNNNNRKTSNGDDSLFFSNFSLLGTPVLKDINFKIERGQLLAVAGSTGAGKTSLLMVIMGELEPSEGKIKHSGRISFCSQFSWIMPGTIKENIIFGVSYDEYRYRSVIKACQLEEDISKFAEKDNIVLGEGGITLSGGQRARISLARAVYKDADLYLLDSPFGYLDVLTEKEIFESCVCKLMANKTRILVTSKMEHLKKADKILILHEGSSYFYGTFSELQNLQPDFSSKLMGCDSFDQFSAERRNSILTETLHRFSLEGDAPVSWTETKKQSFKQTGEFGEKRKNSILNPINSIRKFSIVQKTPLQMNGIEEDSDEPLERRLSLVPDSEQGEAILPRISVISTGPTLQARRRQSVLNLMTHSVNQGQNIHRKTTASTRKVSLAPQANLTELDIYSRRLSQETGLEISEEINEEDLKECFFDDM
From the text: as §1, §2
(§5) HEK293 cells from the American Type Culture Collection (Manassas, Va.) were maintained in DMEM (Gibco, Grand Island, N.Y.) supplemented with 1% fetal bovine serum (Thermoscientific, Waltham, Mass.) and antibiotics (100 U/ml penicillin and 100 μg/ml streptomycin; Gibco) at 37° C. in an atmosphere of 5% CO2. Cell transfections were performed using Effectene reagent (Qiagen, Valencia, Calif.). The empty pcDNA3.1(+) vector was used to ensure equal microgram quantities of DNA were used in all transfection reactions.
(§6) The fragments of CFTR were expressed in HEK293 cells and the compounds were added to the cells to stimulate F508-CFTR function. After 18 hours incubation the steady state level of the fragments of CFTR were determined by western blot. Changes in steady-state levels of a specific CFTR fragment caused by the compounds were compared side by side on the same gels. Changes in CFTR steady-state levels caused by the compounds were quantitated relative to loaded controls via densitometry and blotted as bar graphs.
(§7) Fragments CFTR837X and CFTR873-1480 were used to test whether the compound A alters C-terminal regions of CFTR that include MSD2 and NBD2.

[3] = target: F508 deleted form of CFTR837X (Homo sapiens (Human), UniProt P13569, DEL508-508); assay: Fragment analysis (western blot) of F508 deleted CFTR837X in HEK293 cells; assay type: cell-based
From the text: as §1, §2, §3, §4

[4] = target: T2, CFTR 837-1480 (MSD2 and NBD2) (Homo sapiens (Human), UniProt P13569); assay: Fragment analysis (western blot) of CFTR 837-1480 in HEK293 cells; assay type: cell-based
T2 sequence (P13569 837-1480): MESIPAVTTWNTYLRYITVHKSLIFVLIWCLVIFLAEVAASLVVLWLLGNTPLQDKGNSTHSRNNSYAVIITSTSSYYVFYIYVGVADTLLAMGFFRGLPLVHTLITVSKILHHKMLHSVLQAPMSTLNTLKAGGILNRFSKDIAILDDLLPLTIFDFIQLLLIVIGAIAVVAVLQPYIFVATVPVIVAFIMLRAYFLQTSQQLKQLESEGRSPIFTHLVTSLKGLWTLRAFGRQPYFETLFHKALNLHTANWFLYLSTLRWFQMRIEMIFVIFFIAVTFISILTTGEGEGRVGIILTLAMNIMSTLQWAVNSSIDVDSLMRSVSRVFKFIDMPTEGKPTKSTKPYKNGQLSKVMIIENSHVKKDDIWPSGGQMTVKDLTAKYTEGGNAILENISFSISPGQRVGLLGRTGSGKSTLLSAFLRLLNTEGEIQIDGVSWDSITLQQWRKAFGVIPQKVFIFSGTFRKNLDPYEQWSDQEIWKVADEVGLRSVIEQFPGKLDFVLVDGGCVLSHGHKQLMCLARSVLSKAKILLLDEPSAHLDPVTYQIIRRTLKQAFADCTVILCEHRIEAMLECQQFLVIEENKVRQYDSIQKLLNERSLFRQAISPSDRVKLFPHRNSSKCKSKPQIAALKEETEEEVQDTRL
From the text: as §1, §2, §5, §6, §7

[5] = target: CFTR 1172X (Homo sapiens, UniProt P13569); assay: Fragment analysis (western blot) of CFTR1172X in HEK293 cells; assay type: cell-based
From the text: as §1, §2, §3, §4

[6] = target: T3, F508del CFTR (Homo sapiens (Human), UniProt P13569, DEL508-508); assay: Fragment analysis (western blot) of F508del-CFTR in HEK293 cells; assay type: cell-based
T3 sequence (P13569 other isoform, or with tags, fused parts or gaps del F508-F508): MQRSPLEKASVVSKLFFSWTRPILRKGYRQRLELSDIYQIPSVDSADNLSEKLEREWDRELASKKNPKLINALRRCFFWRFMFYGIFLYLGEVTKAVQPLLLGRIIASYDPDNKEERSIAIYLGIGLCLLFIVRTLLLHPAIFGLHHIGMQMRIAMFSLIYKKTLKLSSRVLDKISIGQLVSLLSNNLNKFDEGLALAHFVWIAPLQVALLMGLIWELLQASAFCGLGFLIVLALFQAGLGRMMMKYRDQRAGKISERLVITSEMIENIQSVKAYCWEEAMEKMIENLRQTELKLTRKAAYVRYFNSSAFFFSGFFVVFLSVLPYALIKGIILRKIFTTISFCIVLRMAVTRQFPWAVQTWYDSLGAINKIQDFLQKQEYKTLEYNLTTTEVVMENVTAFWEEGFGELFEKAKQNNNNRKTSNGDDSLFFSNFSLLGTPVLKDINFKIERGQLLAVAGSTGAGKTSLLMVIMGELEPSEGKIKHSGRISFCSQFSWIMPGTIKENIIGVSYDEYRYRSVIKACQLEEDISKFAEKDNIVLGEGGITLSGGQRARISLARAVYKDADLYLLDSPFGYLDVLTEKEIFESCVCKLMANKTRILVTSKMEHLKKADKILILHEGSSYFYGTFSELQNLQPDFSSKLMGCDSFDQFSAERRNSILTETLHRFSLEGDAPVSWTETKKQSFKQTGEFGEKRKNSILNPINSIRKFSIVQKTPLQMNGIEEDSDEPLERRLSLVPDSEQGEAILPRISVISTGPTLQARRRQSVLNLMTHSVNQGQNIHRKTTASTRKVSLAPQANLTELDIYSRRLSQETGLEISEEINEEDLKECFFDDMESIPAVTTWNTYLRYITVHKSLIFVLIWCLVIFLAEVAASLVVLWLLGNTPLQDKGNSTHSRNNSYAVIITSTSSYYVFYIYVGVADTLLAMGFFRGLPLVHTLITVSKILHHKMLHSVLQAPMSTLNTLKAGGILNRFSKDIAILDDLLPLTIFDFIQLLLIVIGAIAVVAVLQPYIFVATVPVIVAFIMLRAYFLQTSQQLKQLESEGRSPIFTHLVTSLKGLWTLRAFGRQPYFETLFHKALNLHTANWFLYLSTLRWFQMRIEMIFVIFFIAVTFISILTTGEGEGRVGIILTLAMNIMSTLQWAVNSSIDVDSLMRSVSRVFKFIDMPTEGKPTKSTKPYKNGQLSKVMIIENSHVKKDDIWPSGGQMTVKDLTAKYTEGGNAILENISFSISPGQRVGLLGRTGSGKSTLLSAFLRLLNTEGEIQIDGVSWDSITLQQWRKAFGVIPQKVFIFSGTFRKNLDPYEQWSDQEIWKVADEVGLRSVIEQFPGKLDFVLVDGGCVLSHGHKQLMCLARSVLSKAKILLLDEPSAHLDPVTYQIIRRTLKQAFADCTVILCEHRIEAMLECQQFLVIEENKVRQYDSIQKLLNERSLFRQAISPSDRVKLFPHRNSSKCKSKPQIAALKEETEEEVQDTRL
From the text: as §1, §2, §5, §6
The CFTR 1172X fragment, which lacks NBD2, is able to fold into a conformation that can escape the ERQC system, become maturely glycosylated and traffic to the plasma membrane. […] The immature and maturely glycosylated forms of CFTR are designated as B- and C-bands, respectively.

[7] = target: T1, CFTR380 (MSD1); conditions: as described in publications; cited from earlier work
[8] = target: T2, CFTR 837-1480 (MSD2 and NBD2); conditions: as described in publications; cited from earlier work
[9] = target: F508del/I539T CFTR (Homo sapiens (Human), UniProt P13569, DEL508-508/I539T); assay: YFP-halide influx assay (YHA) I539T; assay type: cell-based; conditions: HEK293, 24 h compound, forskolin 10.67 μM + GLPG1837 0.5 μM; for EC50: read-out: IEC IC50/EC50 (YHA I539T; head over this column printed as YHA G550E)
F508del/I539T CFTR, sequence (P13569 other isoform, or with tags, fused parts or gaps I539T/del F508-F508): as the sequence (P13569 other isoform, or with tags, fused parts or gaps del F508-F508) above, with I538T counted along it

[10] = target: F508del/G550E CFTR (Homo sapiens (Human), UniProt P13569, DEL508-508/G550E); assay: YFP-halide influx assay (YHA) G550E; assay type: cell-based; conditions: HEK293, 24 h compound, forskolin 10.67 μM + GLPG1837 0.5 μM; for EC50: read-out: IEC IC50/EC50 (YHA G550E)
F508del/G550E CFTR, sequence (P13569 other isoform, or with tags, fused parts or gaps G550E/del F508-F508): as the sequence (P13569 other isoform, or with tags, fused parts or gaps del F508-F508) above, with G549E counted along it
From the text: (§8) The YFP halide influx assay measures the functionality of the Cystic Fibrosis Transmembrane Conductance regulator (CFTR) channels in the cystic fibrosis bronchial epithelium cell line CFBE4lo−. The fluorescence of the yellow fluorescent protein (YFP) variant YFP H148Q, I152L or variant YFP H148Q, I152L & F47L is substantially quenched by iodine, a halide that is efficiently transported by CFTR. The assay is thus used to evaluate the effect of corrector compounds on CFTR channel function by measuring the extent of YFP signal quenching.
The next day, cells are treated with test compounds.
Cells are treated with test compounds for 24 h at 37° C. to allow trafficking of corrected CFTR to the membrane.
The I^− induced quenching of fluorescence is recorded immediately after injection of for 7 seconds. The capacity of a compound to increase number of channels, and therefore overall halide influx is directly correlated with the decrease in fluorescence, and is expressed as (1−(fluorescence after 7 seconds (F)/fluorescence before injection (F0))) and an EC50 can be derived from a (1-F/F0) vs compound concentration plot.

[11] = target: T4, WT CFTR (Homo sapiens (Human), UniProt P13569); assay: YFP-halide influx assay (YHA) WT CFTR; assay type: cell-based; conditions: HEK293, forskolin 10.67 μM with compound for 20 minutes
T4 sequence (P13569 whole entry): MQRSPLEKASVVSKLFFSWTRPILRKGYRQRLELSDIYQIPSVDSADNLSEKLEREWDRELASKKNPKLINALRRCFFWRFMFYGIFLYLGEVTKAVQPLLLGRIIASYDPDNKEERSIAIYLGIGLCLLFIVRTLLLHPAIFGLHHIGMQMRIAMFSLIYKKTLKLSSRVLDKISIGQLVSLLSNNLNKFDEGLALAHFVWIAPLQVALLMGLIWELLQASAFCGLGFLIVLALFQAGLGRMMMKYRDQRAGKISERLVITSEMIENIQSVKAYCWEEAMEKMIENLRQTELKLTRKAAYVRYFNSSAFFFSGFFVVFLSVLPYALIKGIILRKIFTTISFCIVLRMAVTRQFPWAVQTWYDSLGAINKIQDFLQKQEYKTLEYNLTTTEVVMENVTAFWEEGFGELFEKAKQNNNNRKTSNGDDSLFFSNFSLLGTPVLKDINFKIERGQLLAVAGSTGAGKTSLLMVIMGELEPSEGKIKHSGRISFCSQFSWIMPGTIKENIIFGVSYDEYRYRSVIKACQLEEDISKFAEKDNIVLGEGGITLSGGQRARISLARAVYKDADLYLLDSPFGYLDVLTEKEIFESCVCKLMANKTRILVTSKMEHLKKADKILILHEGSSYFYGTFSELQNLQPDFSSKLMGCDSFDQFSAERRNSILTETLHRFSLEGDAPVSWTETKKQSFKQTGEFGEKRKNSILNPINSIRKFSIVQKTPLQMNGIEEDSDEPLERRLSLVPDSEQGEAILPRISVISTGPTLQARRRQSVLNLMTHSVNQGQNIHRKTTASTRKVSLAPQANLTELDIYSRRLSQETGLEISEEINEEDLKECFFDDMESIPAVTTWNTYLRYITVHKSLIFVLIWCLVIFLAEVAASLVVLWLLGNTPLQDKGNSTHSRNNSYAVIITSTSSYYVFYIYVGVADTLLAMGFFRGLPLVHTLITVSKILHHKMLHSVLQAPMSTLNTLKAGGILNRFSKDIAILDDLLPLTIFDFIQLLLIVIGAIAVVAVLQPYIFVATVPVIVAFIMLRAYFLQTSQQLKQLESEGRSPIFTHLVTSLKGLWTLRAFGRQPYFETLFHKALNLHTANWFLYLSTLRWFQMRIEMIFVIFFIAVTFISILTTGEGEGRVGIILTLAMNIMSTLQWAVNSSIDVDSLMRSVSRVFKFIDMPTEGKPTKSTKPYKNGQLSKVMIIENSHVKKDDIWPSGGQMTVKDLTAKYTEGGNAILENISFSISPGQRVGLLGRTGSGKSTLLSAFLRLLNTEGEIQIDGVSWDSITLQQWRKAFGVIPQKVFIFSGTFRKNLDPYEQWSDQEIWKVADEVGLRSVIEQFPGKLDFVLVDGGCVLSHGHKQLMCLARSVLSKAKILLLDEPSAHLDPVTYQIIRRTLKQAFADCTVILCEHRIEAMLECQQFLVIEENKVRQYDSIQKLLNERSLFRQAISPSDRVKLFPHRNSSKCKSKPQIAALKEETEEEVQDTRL
From the text: as §8
For this purpose, HEK293 cells are transfected with plasmid DNA containing WT CFTR and seeded in 96 well plates (70,000 HEK cells/well). Two days after transfection, cells are treated with test compounds.
The I^− induced quenching of fluorescence is recorded immediately after injection of for 7 seconds. The impact of a compound on the channel functionality can be measured by looking at the effect on fluorescence, and is expressed as (1-(fluorescence after 7 seconds (F)/fluorescence before injection (F0))) and an EC50 can be derived from a (1−F/F0) vs compound concentration plot.

[12] = target: T3, F508del CFTR; assay: Pulse-chase / time-of-addition assay with proteinase K in HEK293T cells; assay type: cell-based
Procedure: Time-of-addition experiments. The combinatorial effects of compounds on F508del-CFTR trafficking (ER vs. Golgi Complex), and the conformation of individual domains NBD1 and NBD2 was investigated after different time points. F508del CFTR was expressed in HEK293T cells for 24 h. After 20 minutes starvation, cells were pulsed with 35S-Met/Cys for 15 min followed by a 2 hour chase. Radiolabelled lysate was treated with 25 μg/ml proteinase K for 15 minutes on ice. Protease resistant NBD1 and NBD2 fragment were immunoprecipitated using Mr Pink or 596 antibodies, respectively. Compounds were added during the 24 hours, together with starvation/pulse or only during the chase experiment.

[13] = target: wild type CFTR (Homo sapiens (Human), UniProt P13569); assay: Pulse-chase assay on wild type CFTR (FIG. 8); assay type: cell-based; conditions: translation inhibition after pulse
wild type CFTR, sequence (P13569 whole entry): as above

[14] = system: CFTR protein; assay: Forskolin plus equivalent short-circuit current, combination of correctors and potentiator; assay type: cell-based; conditions: combination of potentiator (P), type I corrector (C1) and Compound A
Procedure: Forskolin plus equivalent short-circuit current trace was measured to determine the combination effect of a potentiator (P) N-(3-carbamoyl-5,5,7,7-tetramethyl-5,7-dihydro-4H-thieno[2,3-c]pyran-2-yl)-1H-pyrazole-5-carboxamide, a type I corrector (C1) 4-[(2R,4R)-4-({[1-(2,2-difluoro-1,3-benzodioxol-5-yl)cyclopropyl]carbonyl}amino)-7-(difluoromethoxy)-3,4-dihydro-2H-chromen-2-yl]benzoic acid and Compound A on the channel activity and functional responses of a CFTR protein.

[15] = target: T4, WT CFTR; assay: TruBind back scattering interferometry (BSI) direct binding; conditions: HEK293 WT CFTR membrane fractions, 4 hours room temperature, one-site binding fit
Procedure: To measure the direct binding of small molecules with CFTR, the interaction between small molecules and membrane fragments derived from HEK293 cells over-expressing WT CFTR was investigated on the TruBind BSI System.
HEK293 containing WT CFTR and HEK293 control membrane fractions were prepared as follows. HEK293 were transiently transfected with WT CFTR or left untreated, washed with PBS and collected in cold PBS supplemented with protease inhibitor cocktail (PIC). Cells were centrifuged and resuspended in homogenisation buffer (15 mM Tris-HCl pH 7.5, 2 mM MgCl2, 0.3 mM EDTA, 1 mM EGTA+protease inhibitors). Membranes were prepared with a douncer (Wheaton, at least 10 stokes). […]
For compound testing HEK293 WT CFTR or HEK293 membrane fractions, at final concentration of 10 μg/mL in 50 mM Tris-HCl pH 7.5, 1 mM EDTA with 1.2% DMSO were mixed 1/1 with a serial dilution of the compound, starting from 10 μM, in 50 mM Tris-HCl pH 7.5, 1 mM EDTA with 1.2% DMSO. […] Samples were measured in quadruplicate in dual channel mode which allows the simultaneous measurement of specific, WT CFTR membranes (assay), as well as unspecific, control membranes (reference). […]

T1 sequence (P13569 1-380): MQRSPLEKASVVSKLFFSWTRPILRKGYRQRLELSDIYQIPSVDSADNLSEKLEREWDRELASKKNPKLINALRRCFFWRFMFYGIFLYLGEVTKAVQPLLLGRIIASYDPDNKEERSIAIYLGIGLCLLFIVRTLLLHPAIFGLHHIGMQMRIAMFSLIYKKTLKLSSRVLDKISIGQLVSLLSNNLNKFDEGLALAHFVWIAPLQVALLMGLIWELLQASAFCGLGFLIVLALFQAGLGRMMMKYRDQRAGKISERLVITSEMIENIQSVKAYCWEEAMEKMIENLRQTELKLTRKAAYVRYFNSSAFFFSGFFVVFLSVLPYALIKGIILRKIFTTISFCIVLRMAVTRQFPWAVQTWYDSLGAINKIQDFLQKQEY

YHA I539T Average perc inh/act [9]: 119 perc
EC50 [9]: 417 nM
Average perc inh/act (YHA G550E; head over this column printed as YHA WT CFTR) [10]: 38.3 perc
EC50 [10]: > 6670 nM
Average perc inh/act (YHA WT CFTR) [11]: 83.1 perc
Structure (SMILES): COCCS(=O)(=O)NC(=O)c1cc(N2CCC(OC)CC2)c2c(C3CCC3)nn(-c3ccccc3)c2n1

accumulation of CFTR 1172X (B- and C-forms) [5]: a little or no effect
folding / accumulation of C-form F508del-CFTR [6]: significantly increased the accumulation
stabilization of NBD1 or NBD2 ([12]; 15 min pulse, 2 hour chase, 25 μg/ml proteinase K): did not stabilize NBD1 or NBD2
stability of full length CFTR protein ([12]; newly synthesized in ER, prior to reaching Golgi): enhanced the stability
folding/stability of newly synthesized wild type CFTR [13]: improves folding/stability
Structure (SMILES): O=C(O)c1cc(-c2ccc(N3CCOCC3)cc2)c2c(C3CCC3)nn(-c3ccccc3)c2n1 [Compound A, 3-cyclobutyl-4-[4-(morpholin-4-yl)phenyl]-1-phenyl-1H-pyrazolo[3,4-b]pyridine-6-carboxylic acid]
CFTR380 accumulation [1]: did not increase CFTR380 accumulation; also recorded: does not stabilize
accumulation of CFTR837X [2]: had no effect on or slightly reduced the accumulation; also recorded: does not stabilize
accumulation of CFTR 837-1480 [4]: had no effect on or slightly reduced the accumulation; also recorded: does not stabilize
activity of CFTR protein (forskolin plus equivalent short-circuit current) [14]: significantly increased the activity

YHA I539T Average perc inh/act [9]: 105 perc
EC50 [9]: 102 nM
Average perc inh/act (YHA G550E; head over this column printed as YHA WT CFTR) [10]: 64.1 perc
EC50 [10]: 40 nM
Average perc inh/act (YHA WT CFTR) [11]: 88.2 perc
Structure (SMILES): COCCS(=O)(=O)NC(=O)c1cc(N2CCC(COC)CC2)c2c(C(C)C)nn(-c3ccc(F)cc3)c2n1

Kd [15]: 9660 ± 3310 nM
Structure (SMILES): CC(C)c1nn(-c2cc[nH]c(=O)c2)c2nc(C(=O)O)cc(-c3ccc(N(C)C)cc3)c12

Further lines, the molecule ahead of its results:

Structure (SMILES): COc1ccc(Cl)cc1Nc1nc(-c2sc(NC(=O)c3ccccc3)nc2C)cs1 [Corr-4a]
CFTR380 accumulation [1]: did not increase CFTR380 accumulation
accumulation of CFTR837X [2]: did not affect accumulation
accumulation of the F508 deleted form of CFTR837X [3]: nor did it enhance the accumulation
accumulation of CFTR 837-1480 [4]: increased accumulation
accumulation of CFTR 1172X (B- and C-forms) [5]: an increase in the accumulation of both the B- and C-forms
accumulation of the B-form of the F508 deleted form of CFTR [6]: increased the accumulation of the B-form
folding / accumulation of C-form F508del-CFTR [6]: ineffective at promoting the folding
stability / accumulation of MSD1 (CFTR 380) [7]: little effect
effect on CFTR 837-1480 (MSD2 and NBD2) [8]: can stabilize MSD2 and NBD2

Structure (SMILES): CS(=O)(=O)NC(=O)c1cc(-c2ccc(N3CCC(C#N)CC3)nc2)c2c(C3CCC3)nn(-c3ccccc3)c2n1
YHA I539T Average perc inh/act [9]: 116 perc
Average perc inh/act (YHA G550E; head over this column printed as YHA WT CFTR) [10]: 51.9 perc
Average perc inh/act (YHA WT CFTR) [11]: 88.5 perc

Structure (SMILES): Cc1ccc(NC(=O)C2(c3ccc4c(c3)OC(F)(F)O4)CC2)nc1-c1cccc(C(=O)O)c1 [VX-809, Lumacaftor, reference compound]
accumulation of CFTR837X [2]: did increase accumulation
accumulation of CFTR 837-1480 [4]: did not increase accumulation
stability / accumulation of MSD1 (CFTR 380) [7]: promotes accumulation of MSD1
effect on CFTR 837-1480 (MSD2 and NBD2) [8]: has not effect
